The text below walks through data of publication PMC4492764, “Evaluation of biomarkers for in vitro prediction of drug-induced nephrotoxicity: comparison of HK-2, immortalized human proximal tubule epithelial, and primary cultures of human proximal tubular cells” (Pharmacology Research & Perspectives, 2015).

SMILES strings stand for the structures. Entries after “also recorded” stand apart in the source; their conditions may differ. Where only a bound is given, the exact number is not on record here.

Assay type in all cases: cell-based, human
Data set [1] in a line: Resazurin cytotoxicity assay in HK-2 cells. The following applies: human, HK-2 cells; 72 h incubation; Mean ± Standard deviation, n = 3. On the procedure: (§1) For the MTT assay, the medium was then removed, the dried crystals were resuspended in 60 μL of Dimethyl sulfoxide (DMSO), and the absorbance was read at 570 nm. For the resazurin assay, the fluorescence intensity was read using a PolarStar Omega plate reader (BMG Labtech; Mornington VIC, Australia) at excitation/emission 560/590 nm. All assays were performed at least three times. […] La Jolla, CA). Both MTT and resazurin assays were performed three times, with two technical replicates in each assay.

Data set [2] can be described thus: MTT cytotoxicity assay in HK-2 cells. As to conditions: human, HK-2 cells; 72 h incubation; Mean ± Standard deviation, n = 3. As to the method: as §1
Data set [3] has as its system KIM-1 mRNA. Kind of data set: KIM-1 mRNA qRT-PCR in HK-2 cells. The arrangement: key to Upregulation of KIM-1 HK-2 R: +: statistically significant increase; −: no significant increase. As to the method: (§2) HK-2 cells (ATCC CRL-2190; Manassas, VA) were maintained in DMEM/F12 (Life Technologies; Sydney, NSW, Australia) supplemented with 5 μg/mL insulin, 5 μg/mL transferrin, 5 ng/mL sodium selenite (ITS; Roche; […] (passage 2) and culture kits were purchased from Lonza. […] were maintained in Renal Epithelial Cell BulletKitTM (CC-3190, Lonza) at 37°C and 5% CO2 atmosphere. Cells were passaged to 96-well plates with a density of 4000 cells/well. After 24 h culture, compounds with different concentration series were added into each well and incubated for 4, 24, 48, and 72 h. HK-2 and […] were treated with compounds for 4, 24, 48, and 72 h, then the cells were lysed and the RNA reverse transcribed with the TaqMan® Gene Expression Cells-to-CTTM Kit (Life Technologies) according to the manufacturer's instructions. […] Hs00273334_m1), Lcn2 (NGAL; Hs01008571_m1), and Csf1 (M-CSF; Hs00174164_m1). All probes span an exon-exon junction. The real-time quantitative reverse transcription PCR (qRT-PCR) was performed in a 10 μl final reaction mixture using a ViiA 7TM system (Applied Biosystems®, Sydney, NSW, Australia) based on the following thermo cycling conditions: 10 min at 95°C for one cycle, 15 sec at 95°C, 60 sec at 60°C for 40 cycles. The ViiA 7TM software was used for data analysis with Hprt1 expression used for normalization. All assays were performed at least three times, with at least two technical replicates in each assay.
Background: In qPCR the cycle at which signal appears reflects the starting amount.

Data set [4] concerns NGAL mRNA. The data set can be described thus: NGAL mRNA qRT-PCR in hRPTECs. The arrangement: key to Upregulation of NGAL hRPTECs R: +: statistically significant increase; −: no significant increase. On the procedure: as §2
The nature of data set [5]: MTT cytotoxicity assay in hRPTECs. As to conditions: human, hRPTECs (passage 2); 72 h incubation; Mean ± Standard deviation, n = 3. As to the method:
as §1

Data set [6] relates to NGAL. The data set can be described thus: NGAL protein ELISA in hRPTECs. The arrangement: key to Upregulation of NGAL hRPTECs P: +: statistically significant increase; −: no significant increase. As to conditions: for NGAL protein in hRPTEC culture medium: 24 h. On the procedure:
(§3) HK-2 cells (ATCC CRL-2190; Manassas, VA) were maintained in DMEM/F12 (Life Technologies; Sydney, NSW, Australia) supplemented with 5 μg/mL insulin, 5 μg/mL transferrin, 5 ng/mL sodium selenite (ITS; Roche; […] (passage 2) and culture kits were purchased from Lonza. […] were maintained in Renal Epithelial Cell BulletKitTM (CC-3190, Lonza) at 37°C and 5% CO2 atmosphere. Cells were passaged to 96-well plates with a density of 4000 cells/well. After 24 h culture, compounds with different concentration series were added into each well and incubated for 4, 24, 48, and 72 h. KIM-1 (DY1750), NGAL (DY1757), and M-CSF (DY216) Duo-Set® ELISA kits were purchased from R&D systems (Minneapolis, MN). Sandwich-ELISA experiments were conducted following the manufacturer's instructions with slight modifications. A 96-well microplate (MaxiSorp®, Nunc, Thermo Scientific, NSW, Australia) was coated with 100 μL of capture antibodies (diluted 1:200 in PBS) and incubated overnight. The plate was then washed twice with washing buffer (0.05% Tween 20 in PBS, pH 7.4) and blocked by adding 300 μL of blocking buffer (1% bovine serum albumin (BSA) in PBS) for 1 h at room temperature. After washing two times with PBS, 100 μL of samples (cell culture media or cell lysates) or standards were then added to each well and incubated for 2 h at room temperature. The biotinylated detection antibodies were then diluted in blocking buffer, added to each well and incubated for 2 h. Horseradish peroxidase (HRP)-labeled streptavidin (100 μL) was then added to bind to detection antibodies. To each well, 100 μL of substrate solution (1:1 mixture of H2O2 and tetramethylbenzidine) was added and incubated for 20 min before reaction termination with 50 μL of stop solution (2N H2SO4). The optical density of each well was measured at 450 nm using a POLARstar Omega plate reader (BMG Labtech). All assays were performed at least three times, with at least two technical replicates in each assay.

The test system of the next data set is M-CSF mRNA. Kind of data set: M-CSF mRNA qRT-PCR in hRPTECs. The following applies: 72 h (Fig.4C). As to the method: Hs00273334_m1), Lcn2 (NGAL; Hs01008571_m1), and Csf1 (M-CSF; Hs00174164_m1). All probes span an exon-exon junction. The real-time quantitative reverse transcription PCR (qRT-PCR) was performed in a 10 μl final reaction mixture using a ViiA 7TM system (Applied Biosystems®, Sydney, NSW, Australia) based on the following thermo cycling conditions: 10 min at 95°C for one cycle, 15 sec at 95°C, 60 sec at 60°C for 40 cycles. The ViiA 7TM software was used for data analysis with Hprt1 expression used for normalization. All assays were performed at least three times, with at least two technical replicates in each assay.

Data set [7] deals with KIM-1 mRNA. The data set can be described thus: KIM-1 mRNA qRT-PCR in hRPTECs. The arrangement: key to Upregulation of KIM-1 hRPTECs R: +: statistically significant increase; −: no significant increase. As to the method: as §2
The nature of data set [8]: Resazurin cytotoxicity assay in hRPTECs. As to conditions: human, hRPTECs (passage 2); 72 h incubation; Mean ± Standard deviation, n = 3. On the procedure:
as §1

The subject of data set [9] is NGAL mRNA. The data set can be described thus: NGAL mRNA qRT-PCR in HK-2 cells. The arrangement: key to Upregulation of NGAL HK-2 R: +: statistically significant increase; −: no significant increase. The following applies: mRNA levels; 72 h time point. On the procedure: as §2
In data set [10] the test system is KIM-1. Kind of data set: KIM-1 protein ELISA in hRPTECs. The arrangement: key to Upregulation of KIM-1 hRPTECs P: +: statistically significant increase; −: no significant increase. On the procedure: as §3
A general note: In an ELISA, binding on a coated surface is turned into a signal by an enzyme label.

For data set [11], the system named is NGAL. Kind of data set: NGAL protein ELISA in HK-2 cells. The arrangement: key: +: statistically significant increase; −: no significant increase. The following applies: protein levels in culture medium; 72 h time point. As to the method: as §3
Data set [12] relates to KIM-1. Kind of data set: KIM-1 protein ELISA in HK-2 cells. The following applies: protein levels in culture medium; 72 h time point. The arrangement: key: +: statistically significant increase; −: no significant increase. As to the method: as §3
Where [13] appears, read: protein levels in culture medium, 72 h time point.

Broadly, the CC50 is the concentration giving 50% cytotoxicity. Turning to `COc1cccc2c1C(=O)c1c(O)c3c(c(O)c1C2=O)C[C@@](O)(C(=O)CO)C[C@@H]3O[C@H]1C[C@H](N)[C@H](O)[C@H](C)O1` [Doxorubicin, doxorubicin], the CC50 at 72 h is 2.1 ± 1 µM in [1], more than 50 µM in data set [2], more than 50 µM in [5] and 5.2 ± 1 µM in [8]. Further, the “KIM-1 mRNA transcription level in HK-2 cells” value with KIM-1 mRNA [3] (72 h, P < 0.005) was “increased”. Besides, in the data set on NGAL mRNA [4] (72 h exposure, 1 μmol/L (high dose), P < 0.001), the “NGAL mRNA levels in hRPTECs” value was “kept rising; also recorded: significant induction”. For the same molecule, in the data set with NGAL [6], the “NGAL protein in hRPTEC culture medium” value is “increases”. Further, the “M-CSF mRNA levels in hRPTECs” value with M-CSF mRNA is “significant results; also recorded: significant induction”. In addition, the “KIM-1 mRNA in hRPTECs” value in the data set with KIM-1 mRNA [7] (72 h, high dose) was “stimulation; also recorded: significant induction”.
As for `C[C@@H]1[C@H](O)[C@@H](C)/C=C/C=C/C=C/C=C/C=C/C=C/C=C/[C@H](O[C@@H]2O[C@H](C)[C@@H](O)[C@H](N)[C@@H]2O)C[C@@H]2O[C@](O)(C[C@@H](O)C[C@@H](O)[C@H](O)CC[C@@H](O)C[C@@H](O)CC(=O)O[C@H]1C)C[C@H](O)[C@H]2C(=O)O` [AmB, amphotericin B], the CC50 at 72 h was 20 ± 3 µM in [1], more than 50 µM in data set [2], more than 50 µM in data set [5] and 6 ± 1 µM in data set [8]. For the same molecule, the “Upregulation of KIM-1 HK-2 R” value with KIM-1 mRNA [3] (mRNA levels, 72 h time point) is reported as “−”. The “Upregulation of NGAL HK-2 R” value in the data set on NGAL mRNA [9] is given as “−”. The “KIM-1 protein upregulation in hRPTECs” value with KIM-1 [10] (4 h, culture medium (Fig. S5A)) is “significant upregulation”. In the data set with KIM-1 [10] (setting [13]), the “Upregulation of KIM-1 hRPTECs P” value was “+”. Moreover, in the data set with NGAL [11], the “Upregulation of NGAL HK-2 P” value is “−”. Besides, the “Upregulation of NGAL hRPTECs R” value with NGAL mRNA [4] (mRNA levels, 72 h time point) is reported as “−”. In addition, in the data set with NGAL [6], the “NGAL protein in hRPTEC culture medium” value is “increases”. The “Upregulation of NGAL hRPTECs P” value in the data set with NGAL [6] (setting [13]) is “+”. The “Upregulation of KIM-1 hRPTECs R” value in the data set with KIM-1 mRNA [7] (mRNA levels, 72 h time point) is on record as “−”. Besides, in the data set with KIM-1 [12], the “Upregulation of KIM-1 HK-2 P” value is recorded as “−”.
